# Experimental data: US10576062B2, “Carbamoyloxymethyl triazole cyclohexyl acids as LPA antagonists” (Bristol-Myers Squibb Company, priority 2016, dated 2020)
# Test system: CD-1 female mice
# Experiment: LPA challenge with plasma histamine evaluation (acute in vivo histamine assay)
# Set-up: species or system mouse
# Conditions: 3 mg/kg dose
# Method: LPA Challenge with Plasma Histamine Evaluation.
# Compound is dosed orally p.o. 2 hours to CD-1 female mice prior to the LPA challenge. The mice are then dosed via tail vein (IV) with 0.15 mL of LPA in 0.1% BSA/PBS ([…]). Exactly 2 minutes following the LPA challenge, the mice are euthanized by decapitation and the trunk blood is collected. These samples are collectively centrifuged and individual 75 μL samples are frozen at −20° C. until the time of the histamine assay.
# The plasma histamine analysis was run by standard EIA (Enzyme Immunoassay) methods. Plasma samples were thawed and diluted 1:30 in 0.1% BSA in PBS. The EIA protocol for histamine analysis as outlined by the manufacturer was followed (Histamine EIA, Oxford Biomedical Research, EA #31).
# The LPA used in the assay is formulated as follows: LPA (1-oleoyl-2-hydroxy-sn-glycero-3-phosphate (sodium salt), 857130P, Avanti Polar Lipids) is prepared in 0.1% BSA/PBS for total concentration of 2 μg/μL. 13 mg of LPA is weighed and 6.5 mL 0.1% BSA added, vortexed and sonicated for ˜1 hour until a clear solution is achieved.
row,Structure (SMILES),In vivo acute histamine assay: % histamine
1,"C[C@H](C1CC1)N(C)C(=O)OCc1c(-c2ccc(O[C@H]3CCC[C@H](C(=O)O)C3)cc2)nnn1C [Example 51, (1S,3S)-3-(4-(5-(((((R)-1-cyclopropylethyl)(methyl)carbamoyl)oxy)methyl)-1-methyl-1H-1,2,3-triazol-4-yl)phenoxy)cyclohexane-1-carboxylic acid]",−73%

# Same assay, conditions: CD-1 mice, 3 mg/kg dose, p.o. 2 hours prior to LPA challenge
row,Structure (SMILES),histamine (change of plasma histamine after LPA challenge)
1,"Cc1nc(-c2nnn(C)c2COC(=O)N(C)C2CCCC2)ccc1O[C@H]1CCC[C@H](C(=O)O)C1 [Example 1, (1S,3S)-3-((6-(5-(((cyclopentyl(methyl)carbamoyl)oxy)methyl)-1-methyl-1H-1,2,3-triazol-4-yl)-2-methylpyridin-3-yl)oxy)cyclohexane-1-carboxylic Acid]",−97%
2,"CN(C(=O)OCc1c(-c2ccc(O[C@H]3CCC[C@H](C(=O)O)C3)cc2)nnn1C)C1CCCC1 [Example 5, (1S,3S)-3-(4-(5-(((Cyclopentyl(methyl)carbamoyl)oxy)methyl)-1-methyl-1H-1,2,3-triazol-4-yl)phenoxy)cyclohexanecarboxylic acid]",−90%

# Target: T1, human LPA1 (Homo sapiens, UniProt Q92633)
# T1 construct: expressed in transfected cells; host or cells: Chinese hamster ovary (CHO) cells
# T1 sequence (Q92633 whole entry): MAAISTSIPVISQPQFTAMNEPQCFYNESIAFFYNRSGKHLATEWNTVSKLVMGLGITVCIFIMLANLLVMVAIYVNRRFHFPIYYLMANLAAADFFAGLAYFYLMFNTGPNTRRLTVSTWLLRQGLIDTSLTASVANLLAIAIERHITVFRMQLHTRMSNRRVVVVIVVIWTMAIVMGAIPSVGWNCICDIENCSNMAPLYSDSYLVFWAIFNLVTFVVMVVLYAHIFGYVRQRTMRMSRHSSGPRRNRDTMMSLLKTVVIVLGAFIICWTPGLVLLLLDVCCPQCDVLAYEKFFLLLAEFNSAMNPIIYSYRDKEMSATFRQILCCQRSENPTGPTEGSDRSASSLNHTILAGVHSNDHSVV
# Experiment: LPA1 functional antagonist assay (LPA-induced calcium flux)
# Type: cell-based
# Conditions: CHO cells overexpressing human LPA1; inhibition of calcium flux induced by 10 nM LPA; read-out: hLPA1 IC50
# Outline: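 CHO cells overexpressing human LPA1, loaded with calcium dye 30 min at 37° C, were preincubated 20 min at room temperature with compound (0.08 nM–5 μM, 0.5% DMSO) in HBSS/20 mM HEPES/0.1% fatty acid-free BSA.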
row,IC50,Structure (SMILES)
1,475 nM,"CCCN(C)C(=O)OCc1c(-c2ccc(O[C@H]3CCC[C@H](C(=O)O)C3)c(COC)n2)nnn1C [Example 283, (1S,3S)-3-((2-(methoxymethyl)-6-(1-methyl-5-(((methyl(propyl)carbamoyl)oxy)methyl)-1H-1,2,3-triazol-4-yl)pyridin-3-yl)oxy)cyclohexane-1-carboxylic acid]"
2,48 nM,CCCCN(C)C(=O)OCc1c(-c2ccc(O[C@H]3CCC[C@H](C(=O)O)C3)c(COC)n2)nnn1C [Example 284]
3,1010 nM,"COCc1nc(-c2nnn(C)c2COC(=O)N(C)CC2CC2)ccc1O[C@H]1CCC[C@H](C(=O)O)C1 [Example 285, (1S,3S)-3-((6-(5-((((cyclopropylmethyl)(methyl)carbamoyl)oxy)methyl)-1-methyl-1H-1,2,3-triazol-4-yl)-2-(methoxymethyl)pyridin-3-yl)oxy)cyclohexane-1-carboxylic acid]"
4,92 nM,"COCc1nc(-c2nnn(C)c2COC(=O)N(C)C2CCC2)ccc1O[C@H]1CCC[C@H](C(=O)O)C1 [Example 286, (1S,3S)-3-((6-(5-(((cyclobutyl(methyl)carbamoyl)oxy)methyl)-1-methyl-1H-1,2,3-triazol-4-yl)-2-(methoxymethyl)pyridin-3-yl)oxy)cyclohexane-1-carboxylic acid]"
5,118 nM,"COCc1nc(-c2nnn(C)c2COC(=O)N(C)C2CCCC2)ccc1O[C@H]1CCC[C@H](C(=O)O)C1 [Example 287, (1S,3S)-3-((6-(5-(((cyclopentyl(methyl)carbamoyl)oxy)methyl)-1-methyl-1H-1,2,3-triazol-4-yl)-2-(methoxymethyl)pyridin-3-yl)oxy)cyclohexane-1-carboxylic acid]"
6,29 nM,"[2H]C([2H])([2H])N(CCC)C(=O)OCc1c(-c2ccc(O[C@H]3CCC[C@H](C(=O)O)C3)c(C)n2)nnn1C [Example 288, (1S,3S)-3-((2-methyl-6-(1-methyl-5-((((methyl-d3)(propyl)carbamoyl)oxy)methyl)-1H-1,2,3-triazol-4-yl)pyridin-3-yl)oxy)cyclohexane-1-carboxylic acid]"
7,40 nM,"CN(CC1CC1)C(=O)OCc1c(-c2ccc(O[C@H]3CCC[C@H](C(=O)O)C3)c(C#N)n2)nnn1C [Example 289, (1S,3S)-3-((2-cyano-6-(5-((((cyclopropylmethyl)(methyl)carbamoyl)oxy)methyl)-1-methyl-1H-1,2,3-triazol-4-yl)pyridin-3-yl)oxy)cyclohexane-1-carboxylic acid]"
8,2 nM,"CN(Cc1ccccc1)C(=O)OCc1c(-c2ccc(O[C@H]3CCC[C@H](C(=O)O)C3)c(C#N)n2)nnn1C [Example 290, (1S,3S)-3-((6-(5-(((benzyl(methyl)carbamoyl)oxy)methyl)-1-methyl-1H-1,2,3-triazol-4-yl)-2-cyanopyridin-3-yl)oxy)cyclohexane-1-carboxylic acid]"
9,15 nM,"CCCCN(C)C(=O)OCc1c(-c2ccc(O[C@H]3CCC[C@H](C(=O)O)C3)c(C#N)n2)nnn1C [Example 291, (1S,3S)-3-((6-(5-(((butyl(methyl)carbamoyl)oxy)methyl)-1-methyl-1H-1,2,3-triazol-4-yl)-2-cyanopyridin-3-yl)oxy)cyclohexane-1-carboxylic acid]"
10,20 nM,"CN(CC1CCC1)C(=O)OCc1c(-c2ccc(O[C@H]3CCC[C@H](C(=O)O)C3)c(C#N)n2)nnn1C [Example 292, (1S,3S)-3-((2-cyano-6-(5-((((cyclobutylmethyl)(methyl)carbamoyl)oxy)methyl)-1-methyl-1H-1,2,3-triazol-4-yl)pyridin-3-yl)oxy)cyclohexane-1-carboxylic acid]"
11,23 nM,"CN(C(=O)OCc1c(-c2ccc(O[C@H]3CCC[C@H](C(=O)O)C3)c(C#N)n2)nnn1C)C1CCC1 [Example 293, (1S,3S)-3-((2-cyano-6-(5-(((cyclobutyl(methyl)carbamoyl)oxy)methyl)-1-methyl-1H-1,2,3-triazol-4-yl)pyridin-3-yl)oxy)cyclohexane-1-carboxylic acid]"
12,15 nM,"CN(C(=O)OCc1c(-c2ccc(O[C@H]3CCC[C@H](C(=O)O)C3)c(C#N)n2)nnn1C)C1CCCC1 [Example 294, (1S,3S)-3-((2-cyano-6-(5-(((cyclopentyl(methyl)carbamoyl)oxy)methyl)-1-methyl-1H-1,2,3-triazol-4-yl)pyridin-3-yl)oxy)cyclohexane-1-carboxylic acid]"

# Second part, the compound before the results:
row,Structure (SMILES),IC50
1,"CCCCN(C)C(=O)OCc1c(-c2ccc(O[C@H]3CCC[C@H](C(=O)O)C3)c(C(F)(F)F)n2)nnn1C [Example 275, (1S,3S)-3-((6-(5-(((butyl(methyl)carbamoyl)oxy)methyl)-1-methyl-1H-1,2,3-triazol-4-yl)-2-(trifluoromethyl)pyridin-3-yl)oxy)cyclohexane-1-carboxylic acid]",5.6 nM
2,"CN(C(=O)OCc1c(-c2ccc(O[C@H]3CCC[C@H](C(=O)O)C3)c(C(F)(F)F)n2)nnn1C)C1CCCC1 [Example 276, (1S,3S)-3-((6-(5-(((cyclopentyl(methyl)carbamoyl)oxy)methyl)-1-methyl-1H-1,2,3-triazol-4-yl)-2-(trifluoromethyl)pyridin-3-yl)oxy)cyclohexane-1-carboxylic acid]",15 nM
3,"CCCN(C)C(=O)OCc1c(-c2ccc(O[C@H]3CCC[C@H](C(=O)O)C3)c(C(F)F)n2)nnn1C [Example 277, (1S,3S)-3-((2-(difluoromethyl)-6-(1-methyl-5-(((methyl(propyl)carbamoyl)oxy)methyl)-1H-1,2,3-triazol-4-yl)pyridin-3-yl)oxy)cyclohexane-1-carboxylic acid]",35 nM
4,"CCCCN(C)C(=O)OCc1c(-c2ccc(O[C@H]3CCC[C@H](C(=O)O)C3)c(C(F)F)n2)nnn1C [Example 278, (1S,3S)-3-((6-(5-(((butyl(methyl)carbamoyl)oxy)methyl)-1-methyl-1H-1,2,3-triazol-4-yl)-2-(difluoromethyl)pyridin-3-yl)oxy)cyclohexane-1-carboxylic acid]",22 nM
5,"CN(CC1CC1)C(=O)OCc1c(-c2ccc(O[C@H]3CCC[C@H](C(=O)O)C3)c(C(F)F)n2)nnn1C [Example 279, (1S,3S)-3-((6-(5-((((cyclopropylmethyl)(methyl)carbamoyl)oxy)methyl)-1-methyl-1H-1,2,3-triazol-4-yl)-2-(difluoromethyl)pyridin-3-yl)oxy)cyclohexane-1-carboxylic acid]",21 nM
6,"CN(C(=O)OCc1c(-c2ccc(O[C@H]3CCC[C@H](C(=O)O)C3)c(C(F)F)n2)nnn1C)C1CCC1 [Example 280, (1S,3S)-3-((6-(5-(((cyclobutyl(methyl)carbamoyl)oxy)methyl)-1-methyl-1H-1,2,3-triazol-4-yl)-2-(difluoromethyl)pyridin-3-yl)oxy)cyclohexane-1-carboxylic acid]",22 nM
7,"CN(C(=O)OCc1c(-c2ccc(O[C@H]3CCC[C@H](C(=O)O)C3)c(C(F)F)n2)nnn1C)C1CCCC1 [Example 281, (1S,3S)-3-((6-(5-(((cyclopentyl(methyl)carbamoyl)oxy)methyl)-1-methyl-1H-1,2,3-triazol-4-yl)-2-(difluoromethyl)pyridin-3-yl)oxy)cyclohexane-1-carboxylic acid]",35 nM
8,"CN(Cc1ccccc1)C(=O)OCc1c(-c2ccc(O[C@H]3CCC[C@H](C(=O)O)C3)c(C(F)F)n2)nnn1C [Example 282, (1S,3S)-3-((6-(5-(((benzyl(methyl)carbamoyl)oxy)methyl)-1-methyl-1H-1,2,3-triazol-4-yl)-2-(difluoromethyl)pyridin-3-yl)oxy)cyclohexane-1-carboxylic acid]",19 nM

# Same assay, conditions: read-out: hLPA1 IC50
row,IC50,Structure (SMILES)
1,24 nM,"C[C@H](C1CC1)N(C)C(=O)OCc1c(-c2ccc(O[C@H]3CCC[C@H](C(=O)O)C3)cc2)nnn1C [Example 51, (1S,3S)-3-(4-(5-(((((R)-1-cyclopropylethyl)(methyl)carbamoyl)oxy)methyl)-1-methyl-1H-1,2,3-triazol-4-yl)phenoxy)cyclohexane-1-carboxylic acid]"
